Reference: ChEMBL document CHEMBL1147674, “Evolution of the thienopyridine class of inhibitors of IkappaB kinase-beta: part I: hit-to-lead strategies” (J Med Chem, 2006)
In brackets after ≈: the same amount, converted by molar mass. Each block holds one compound with its values, some of them ahead of it.

Columns and labels:
[1] = target: T1, Inhibitor of nuclear factor kappa-B kinase subunit beta (Homo sapiens, UniProt O14920)
T1 sequence (O14920 whole entry): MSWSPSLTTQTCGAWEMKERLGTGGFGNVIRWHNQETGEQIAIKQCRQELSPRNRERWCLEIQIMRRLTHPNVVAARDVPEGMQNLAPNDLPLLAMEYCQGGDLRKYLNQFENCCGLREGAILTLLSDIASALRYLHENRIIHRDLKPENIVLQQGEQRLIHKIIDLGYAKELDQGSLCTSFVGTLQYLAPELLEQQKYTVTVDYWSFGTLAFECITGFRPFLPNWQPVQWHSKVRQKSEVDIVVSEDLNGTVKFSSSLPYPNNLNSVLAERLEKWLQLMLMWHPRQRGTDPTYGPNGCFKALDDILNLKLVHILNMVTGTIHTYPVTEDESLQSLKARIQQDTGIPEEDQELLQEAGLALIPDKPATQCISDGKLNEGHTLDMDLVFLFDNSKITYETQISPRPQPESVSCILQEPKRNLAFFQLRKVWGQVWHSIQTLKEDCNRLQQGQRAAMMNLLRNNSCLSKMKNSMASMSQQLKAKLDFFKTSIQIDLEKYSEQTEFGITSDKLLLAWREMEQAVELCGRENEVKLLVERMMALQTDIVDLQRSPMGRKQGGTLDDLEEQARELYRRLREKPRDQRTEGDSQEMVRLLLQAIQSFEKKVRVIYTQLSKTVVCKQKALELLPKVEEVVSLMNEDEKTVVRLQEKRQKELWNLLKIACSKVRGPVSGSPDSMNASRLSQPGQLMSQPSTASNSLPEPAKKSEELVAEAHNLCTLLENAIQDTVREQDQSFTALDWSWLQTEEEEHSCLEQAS

[2] = target: Cytochrome P450 2D6 (Homo sapiens, UniProt P10635); test: Inhibition of CYP2D6; assay type: ADME
Chain of Cytochrome P450 2D6 (P10635 whole entry): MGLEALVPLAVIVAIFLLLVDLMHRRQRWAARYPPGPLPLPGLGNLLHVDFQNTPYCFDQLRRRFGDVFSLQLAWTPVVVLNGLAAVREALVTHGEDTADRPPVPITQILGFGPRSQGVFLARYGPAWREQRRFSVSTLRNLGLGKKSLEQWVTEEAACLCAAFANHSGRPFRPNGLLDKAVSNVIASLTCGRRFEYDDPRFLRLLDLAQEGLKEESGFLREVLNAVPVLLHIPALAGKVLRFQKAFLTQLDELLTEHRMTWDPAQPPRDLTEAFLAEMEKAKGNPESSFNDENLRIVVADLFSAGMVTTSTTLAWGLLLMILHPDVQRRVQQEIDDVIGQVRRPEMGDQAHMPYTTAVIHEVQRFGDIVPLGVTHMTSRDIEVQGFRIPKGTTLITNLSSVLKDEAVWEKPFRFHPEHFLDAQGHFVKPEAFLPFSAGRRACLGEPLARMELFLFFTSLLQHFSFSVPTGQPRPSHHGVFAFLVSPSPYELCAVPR

[3] = target: Cytochrome P450 3A4 (Homo sapiens, UniProt P08684); test: Inhibition of CYP3A4; assay type: ADME
Chain of Cytochrome P450 3A4 (P08684 whole entry): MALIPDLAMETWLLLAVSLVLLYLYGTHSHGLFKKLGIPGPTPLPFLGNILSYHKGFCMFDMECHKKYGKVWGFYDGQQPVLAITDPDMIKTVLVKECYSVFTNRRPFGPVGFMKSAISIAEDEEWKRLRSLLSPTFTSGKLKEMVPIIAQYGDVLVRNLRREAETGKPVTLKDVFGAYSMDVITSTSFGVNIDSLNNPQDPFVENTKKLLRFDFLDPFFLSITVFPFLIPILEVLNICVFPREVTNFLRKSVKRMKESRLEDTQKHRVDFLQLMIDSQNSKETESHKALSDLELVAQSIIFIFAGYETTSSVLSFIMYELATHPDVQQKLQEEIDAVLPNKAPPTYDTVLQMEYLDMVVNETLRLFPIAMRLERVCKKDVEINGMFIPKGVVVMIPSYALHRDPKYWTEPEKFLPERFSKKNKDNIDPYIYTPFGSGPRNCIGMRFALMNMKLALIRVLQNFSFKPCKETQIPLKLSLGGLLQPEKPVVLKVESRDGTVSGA

[4] = target: T2, Cytochrome P450 1A2 (Homo sapiens, UniProt P05177); test: Inhibition of CYP1A2; assay type: ADME
T2 sequence (P05177 whole entry): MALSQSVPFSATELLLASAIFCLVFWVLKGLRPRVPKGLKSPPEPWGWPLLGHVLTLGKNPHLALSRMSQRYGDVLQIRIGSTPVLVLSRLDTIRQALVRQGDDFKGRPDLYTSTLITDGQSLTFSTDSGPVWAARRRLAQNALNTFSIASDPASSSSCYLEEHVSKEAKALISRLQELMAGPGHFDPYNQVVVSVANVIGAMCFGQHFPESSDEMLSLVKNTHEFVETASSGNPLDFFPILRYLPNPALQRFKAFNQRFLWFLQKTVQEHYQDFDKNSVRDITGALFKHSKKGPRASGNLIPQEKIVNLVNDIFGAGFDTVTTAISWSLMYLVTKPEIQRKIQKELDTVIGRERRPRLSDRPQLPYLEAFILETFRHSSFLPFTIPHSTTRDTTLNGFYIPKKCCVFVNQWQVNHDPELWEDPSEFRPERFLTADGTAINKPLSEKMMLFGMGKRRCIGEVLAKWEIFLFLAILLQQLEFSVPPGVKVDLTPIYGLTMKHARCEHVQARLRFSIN

[5] = target: Cytochrome P450 2C19 (Homo sapiens, UniProt P33261); test: Inhibition of CYP2C19; assay type: ADME
Chain of Cytochrome P450 2C19 (P33261 whole entry): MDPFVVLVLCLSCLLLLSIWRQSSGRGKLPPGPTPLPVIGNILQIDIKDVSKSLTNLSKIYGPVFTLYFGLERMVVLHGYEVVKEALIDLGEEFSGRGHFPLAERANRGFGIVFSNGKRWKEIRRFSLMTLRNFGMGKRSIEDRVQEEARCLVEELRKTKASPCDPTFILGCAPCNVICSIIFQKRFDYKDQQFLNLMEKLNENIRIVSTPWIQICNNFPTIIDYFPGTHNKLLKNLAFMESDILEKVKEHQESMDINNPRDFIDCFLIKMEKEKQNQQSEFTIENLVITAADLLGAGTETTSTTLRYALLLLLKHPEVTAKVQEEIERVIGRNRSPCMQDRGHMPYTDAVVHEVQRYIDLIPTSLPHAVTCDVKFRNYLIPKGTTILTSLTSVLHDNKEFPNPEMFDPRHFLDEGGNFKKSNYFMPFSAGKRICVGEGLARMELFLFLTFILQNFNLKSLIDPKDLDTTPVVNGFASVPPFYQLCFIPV

[6] = Half life in human liver microsome; assay type: ADME; details: liver microsomes
[7] = target: T3, Inhibitor of nuclear factor kappa-B kinase subunit alpha (Homo sapiens, UniProt O15111); test: Inhibition of IKK alpha
T3 sequence (O15111 whole entry): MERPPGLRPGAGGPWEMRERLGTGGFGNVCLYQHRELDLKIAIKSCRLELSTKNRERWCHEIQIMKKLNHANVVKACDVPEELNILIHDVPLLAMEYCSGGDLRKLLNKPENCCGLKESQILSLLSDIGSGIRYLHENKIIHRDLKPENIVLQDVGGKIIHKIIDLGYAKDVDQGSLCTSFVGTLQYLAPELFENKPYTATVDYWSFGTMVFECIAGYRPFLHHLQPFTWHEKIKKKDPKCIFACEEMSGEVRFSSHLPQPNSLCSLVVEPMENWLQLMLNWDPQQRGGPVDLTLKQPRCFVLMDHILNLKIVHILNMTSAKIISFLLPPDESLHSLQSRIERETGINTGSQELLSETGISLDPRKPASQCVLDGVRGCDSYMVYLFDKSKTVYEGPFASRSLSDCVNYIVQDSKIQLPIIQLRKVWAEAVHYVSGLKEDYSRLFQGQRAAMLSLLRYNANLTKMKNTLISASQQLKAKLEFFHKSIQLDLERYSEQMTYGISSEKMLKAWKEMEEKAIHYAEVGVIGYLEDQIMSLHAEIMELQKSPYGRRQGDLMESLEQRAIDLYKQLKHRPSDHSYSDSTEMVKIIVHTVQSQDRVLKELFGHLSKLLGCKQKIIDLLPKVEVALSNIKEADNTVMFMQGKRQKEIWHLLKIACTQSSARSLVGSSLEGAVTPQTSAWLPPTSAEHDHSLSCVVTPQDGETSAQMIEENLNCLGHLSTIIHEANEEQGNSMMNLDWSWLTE

[8] = system: HeLa; test: Viability of HeLa cells at 50 uM by alomar blue assay; assay type: functional, Homo sapiens
[9] = Permeability from apical to basolateral side of Caco-2 cell membrane; assay type: ADME, cell-based; details: human, read-out: permeability
[10] = Solubility at pH 7.4; assay type: physicochemical; details: buffer
[11] = target: Cytochrome P450 2C9 (Homo sapiens, UniProt P11712); test: Inhibition of CYP2C9; assay type: ADME
Chain of Cytochrome P450 2C9 (P11712 whole entry): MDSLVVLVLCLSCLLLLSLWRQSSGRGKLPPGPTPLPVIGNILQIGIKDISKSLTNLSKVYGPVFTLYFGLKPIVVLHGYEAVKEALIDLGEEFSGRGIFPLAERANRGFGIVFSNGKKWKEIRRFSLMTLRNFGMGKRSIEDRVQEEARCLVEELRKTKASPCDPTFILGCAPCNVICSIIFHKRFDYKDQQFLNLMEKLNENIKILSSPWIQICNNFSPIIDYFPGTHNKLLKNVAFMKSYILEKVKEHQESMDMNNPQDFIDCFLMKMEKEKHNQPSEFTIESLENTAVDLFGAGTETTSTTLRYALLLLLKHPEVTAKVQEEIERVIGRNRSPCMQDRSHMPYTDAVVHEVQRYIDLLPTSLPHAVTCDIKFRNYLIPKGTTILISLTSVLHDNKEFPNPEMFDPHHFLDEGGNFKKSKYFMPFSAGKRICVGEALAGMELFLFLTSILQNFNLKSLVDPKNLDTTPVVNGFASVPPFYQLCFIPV

[12] = target: Tyrosine-protein kinase BTK (Homo sapiens, UniProt Q06187); test: Inhibition of BTK
Chain of Tyrosine-protein kinase BTK (Q06187 whole entry): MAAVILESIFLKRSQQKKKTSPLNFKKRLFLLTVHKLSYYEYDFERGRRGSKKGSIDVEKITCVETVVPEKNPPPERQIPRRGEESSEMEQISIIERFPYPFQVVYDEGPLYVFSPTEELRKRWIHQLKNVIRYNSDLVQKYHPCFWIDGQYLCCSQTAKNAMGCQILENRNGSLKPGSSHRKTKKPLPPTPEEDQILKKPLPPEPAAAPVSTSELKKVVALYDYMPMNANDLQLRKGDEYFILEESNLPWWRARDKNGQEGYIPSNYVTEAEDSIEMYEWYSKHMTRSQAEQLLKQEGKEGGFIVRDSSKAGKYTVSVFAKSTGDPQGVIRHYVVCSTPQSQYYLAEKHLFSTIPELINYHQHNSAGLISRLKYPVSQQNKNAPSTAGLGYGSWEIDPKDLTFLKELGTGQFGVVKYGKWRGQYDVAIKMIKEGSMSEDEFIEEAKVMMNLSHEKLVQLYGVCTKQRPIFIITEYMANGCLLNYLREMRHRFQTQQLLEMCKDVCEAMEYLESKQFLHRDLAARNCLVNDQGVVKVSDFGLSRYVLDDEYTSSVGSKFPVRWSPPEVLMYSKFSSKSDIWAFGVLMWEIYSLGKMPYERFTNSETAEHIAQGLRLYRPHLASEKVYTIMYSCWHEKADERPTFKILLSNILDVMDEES

[13] = Inhibition of NF-kappaB luciferase reporter gene in HeLa cells at 10 uM; assay type: functional; details: Homo sapiens
[14] = Inhibition of ICAM1 expression in HeLa cells at 10 uM; assay type: functional; details: Homo sapiens

Compound: NC(=O)c1sc(-c2ccsc2)cc1N
IC50 [1]: 1.3 µM

IC50 [1]: 25.8 µM
Compound: NC(=O)c1ccc(-c2nc(C(N)=O)c(N)o2)cc1

IC50 [1]: > 35 µM
Compound: NC(=O)c1c(N)nc2ccc(Cl)cc2c1-c1ccccc1

IC50 [1]: 8.2 µM
Compound: Cc1cc(COc2ccccc2)c2c(N)c(C(N)=O)sc2n1

IC50 [1]: 9.6 µM
Compound: NC(=O)c1cc2ccccc2nc1N

IC50 [1]: 12.7 µM
Compound: Cc1cc(CO)c2c(N)c(C(N)=O)sc2n1

IC50 [1]: 10.6 µM
Compound: NC(=O)c1nc(-c2cccc(Cl)c2)oc1N

IC50 [1]: > 50 µM
Compound: NC(=O)c1ccc(-c2ccc(Cl)cc2)s1

IC50 [2]: > 30 µM | IC50 [3]: > 30 µM | IC50 [4]: > 30 µM | IC50 [5]: > 30 µM | half-life [6]: 146 min | IC50 [7]: 21 µM | Papp A→B [9]: 12.8 ×10⁻⁶ cm/s | solubility [10]: 32 µg/mL (≈ 166 µM) | IC50 [11]: > 30 µM | IC50 [1]: 7.4 µM
Compound: NC(=O)c1sc2ncccc2c1N
Activity [8]: 93%

IC50 [2]: > 30 µM | IC50 [3]: 3.5 µM | IC50 [4]: 5 µM | IC50 [12]: 15.1 µM | IC50 [5]: > 30 µM | half-life [6]: 22 min | IC50 [7]: > 30 µM | Papp A→B [9]: 9.3 ×10⁻⁶ cm/s | solubility [10]: 10 µg/mL (≈ 45.8 µM) | IC50 [11]: 26 µM | IC50 [1]: 1.1 µM
Compound: NC(=O)c1sc(-c2ccccc2)cc1N
inhibition at 10 µM [13]: 20% | Activity [8]: 100% | inhibition at 10 µM [14]: 42%

IC50 [1]: 13.9 µM
Compound: COc1cccc(-c2nc(C(N)=O)c(N)o2)c1

IC50 [2]: > 30 µM | IC50 [3]: 2 µM | IC50 [4]: 12 µM | IC50 [5]: 4 µM | half-life [6]: 12 min | IC50 [7]: 24 µM | Papp A→B [9]: 19.3 ×10⁻⁶ cm/s | solubility [10]: 7 µg/mL (≈ 29.6 µM) | IC50 [11]: 7 µM | IC50 [1]: 2.6 µM
Compound: NC(=O)c1sc(-c2ccc(F)cc2)cc1N
inhibition at 10 µM [13]: 45% | Activity [8]: 100% | inhibition at 10 µM [14]: 48%

IC50 [1]: 5.6 µM
Compound: Cc1cc(COc2ccc(C#N)cc2)c2c(N)c(C(N)=O)sc2n1

IC50 [1]: 13 µM
Compound: COc1ccc(OCc2cc(C)nc3sc(C(N)=O)c(N)c23)cc1

IC50 [1]: 10.3 µM
Compound: CCC(=O)Nc1cc(-c2ccccc2)sc1C(N)=O

IC50 [1]: 19.9 µM
Compound: Cc1cnc2sc(C(N)=O)c(N)c2c1

IC50 [1]: > 27.5 µM
Compound: Cc1nc2sc(C(N)=O)c(N)c2c(C)c1Cl

IC50 [1]: 1.4 µM
Compound: Cc1cc(COc2ccc(C(N)=O)cc2)c2c(N)c(C(N)=O)sc2n1

IC50 [1]: 2.5 µM
Compound: CCCCc1cc(C)c2c(N)c(C(N)=O)sc2n1

IC50 [1]: 36.2 µM
Compound: COc1ccccc1-c1nc(C(N)=O)c(N)o1

IC50 [1]: 6.6 µM
Compound: NC(=O)c1nc(-c2ccccc2Cl)oc1N

IC50 [1]: 4.1 µM
Compound: Cc1cc(CC(C)C)nc2sc(C(N)=O)c(N)c12

IC50 [1]: > 32.5 µM
Compound: NC(=O)c1nc(C2CCCCC2)oc1N

IC50 [1]: 6.3 µM
Compound: Cc1ccccc1-c1nc(C(N)=O)c(N)o1

IC50 [1]: > 30 µM
Compound: COC(=O)c1sc(-c2ccccc2)cc1N
